Molecules are shown by their SMILES. Active and inactive are the calls of the source.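 How the source made its calls: active means half-maximal concentration for the rise in caspase light signal at or below ten times the top tested dose; inconclusive means flat fit between 30% and 70% activity, or unreliable curve fit; inactive means the rest.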 Some results are limits rather than exact numbers.

Drawing on PubChem BioAssay AID2765 (Broad Institute, 2010), this text covers EC50 for 85 compounds.

This assay has as its system MEF A1-2A-BIM cells, caspase 3/7 luminescence, 3 h. The experiment in a line: caspase activation in A1-2A-BIM MEF cells, dose response, A1 inhibitor project, cell-based, luminescence, retest (AID 2765).

The term EC50 denotes the midpoint of the concentration-response curve. Turning to `CCCc1cc(=O)oc2cc(C)cc(OCC(=O)Nc3ccc(S(N)(=O)=O)cc3)c12`, the EC50 was > 35 µM (inactive).
The same measure for `CCOC(=O)/C=c1\s/c(=C\c2ccc(C#N)cc2)c(=O)n1CC(=O)Nc1cccc(C)c1C`: 3.13 µM; for `C=CCOc1c(Br)cc(CNc2ccc3[nH]c(=O)[nH]c3c2)cc1OCC`: > 35 µM (inactive).
Consider `O=C(O)COc1ccccc1/C=C1\C(=O)Nc2ccc(Br)cc21`, for which the EC50 was > 35 µM (inactive).
As for `COc1cc2sc(-c3ccc(S(C)(=O)=O)cc3)c(C(=O)NCCCCO)c2cc1OC`, the EC50 was > 35 µM (inactive).
For `OC(COc1ccc2ccccc2c1Br)Cn1ccnc1` (stereo not given) the value was > 35 µM (inactive).
For `CCOC(=O)/C(=C\c1cccnc1)C(=O)c1cc(C(C)=O)c(Nc2ccccc2)s1` the value was > 35 µM (inactive).
The same measure for `Cc1c(Cl)cccc1NC(=O)[C@@]1(CC(=O)O)CC(/C=C/c2ccccc2)=NO1`: > 35 µM (inactive).
As for `O=C1C(=O)N(Cc2ccco2)C(c2cccs2)/C1=C(\O)c1cccc([N+](=O)[O-])c1` (stereo not given), the EC50 is > 35 µM (inactive).
As for `CCOC(=O)C(NC(=O)c1ccc(OC)cc1)(N1CCCC1=O)C(F)(F)F` (stereo not given), the EC50 is > 35 µM (inactive).
For `CCOC(=O)CS(=O)(=O)c1nc(-c2ccccc2)cc(C(F)(F)F)n1` the value was > 35 µM (inactive).
Turning to `O=C(CNC(=O)c1ccc(Br)cc1)NC1CC1`, the EC50 was > 35 µM (inactive).
For `COc1cc(CN2CCc3ccccc3C2)ccc1O` the value was > 35 µM (inactive); for `CN1CCc2c(sc3c2C(=O)NC(c2ccccn2)N3)C1` (stereo not given), > 35 µM (inactive); for `Cc1cc(C)cc(Cn2ncc(Cl)c(Cl)c2=O)c1`, > 35 µM (inactive).
The same measure for `COc1ccc(NC(=O)CN(C)C(=O)/C=C/c2ccc(S(=O)(=O)N3CCCCCC3)cc2)cc1`: > 35 µM (inactive).
Regarding `CCCc1nc2sc3c(c2c(=O)n1N)CCC3`, the EC50 was > 35 µM (inactive).
The same measure for `COCc1cc(C)nc(SCC(=O)Nc2ccc3c(c2)OCO3)c1C#N`: > 35 µM (inactive); for `COc1ccccc1N1C(=O)c2cccc3c(Cl)ccc(c23)C1=O`: > 35 µM (inactive).
Consider `Cc1cc(C(=O)CCl)c(C)n1CCc1ccc(Cl)cc1`, for which the EC50 was > 35 µM (inactive).
For `Nc1nc(F)nc2c1ncn2[C@@H]1O[C@H](CO)[C@@H](O)[C@H]1O` the value was > 35 µM (inactive); for `O=C(N/N=C/c1ccc(Cl)cc1Cl)c1ccc2nc[nH]c2c1`, > 35 µM (inactive); for `COc1cc(CN2CCCC(C(=O)Nc3ccccc3Oc3cccnc3)C2)ccc1F` (stereo not given), > 35 µM (inactive).
With `Brc1ccc(CN2CCN(Cc3c[nH]c4ccccc34)CC2)cc1`, the EC50 is > 35 µM (inactive).
The same measure for `FC(F)(F)c1ccc(Sc2n[nH]c(C(F)(F)F)n2)nc1`: > 35 µM (inactive).
With `Cc1c(C(=O)O)cccc1N1C(=O)Nc2ccccc2N1O`, the EC50 is > 35 µM (inactive).
With `CC(=O)c1cc(C#N)c(SCC(=O)Nc2nccs2)nc1C`, the EC50 is > 35 µM (inactive).
For `COc1ccc(S(=O)(=O)Nc2ccccc2C(=O)NC2CC2)cc1NC(C)=O` the value was > 35 µM (inactive); for `COCCCN(C(=O)Nc1ccccc1)C(C)c1ccncc1` (stereo not given), > 35 µM (inactive); for `Cc1ccc(/C=C/C(=O)c2ccc([N+](=O)[O-])o2)cc1`, > 35 µM (inactive).
The same measure for `CC(=O)c1ccc(N2CCN(S(=O)(=O)c3c(C(=O)N4CCCC4)c(C)n(C)c3C)CC2)cc1`: > 35 µM (inactive); for `COc1cc2ncnc(NCc3ccc(F)cc3)c2cc1OC`: > 35 µM (inactive).
Consider `O=C1c2ccsc2SCCN1Cc1cccc(F)c1`, for which the EC50 was > 35 µM (inactive).
For the compound `O=C(c1cc2sccc2n1Cc1ccc(F)cc1)N1CCCc2ccccc21`, the EC50 is > 35 µM (inactive).
With `CC(=O)Nc1ccc([N+](=O)[O-])c(CS(=O)(=O)c2ccc(C)cc2)c1[N+](=O)[O-]`, the EC50 was > 35 µM (inactive).
For `C[C@H](CO)N1C[C@H](C)[C@H](CN(C)Cc2ccc(-c3ccccc3)cc2)Oc2ccc(NS(=O)(=O)c3ccccc3)cc2CC1=O`, the EC50 was > 35 µM (inactive).
For `O=C1N/C(=C/c2ccc(N3CCOCC3)o2)C(=O)N1c1cccc(Cl)c1` the value was > 35 µM (inactive); for `CCn1c(CNc2ccc(F)cc2)nnc1SCC(=O)Nc1ccccc1OC`, > 35 µM (inactive); for `COc1ccc(-c2ccc3c(c2)S(=O)(=O)c2cccc(C(=O)NCc4cccc(OC(F)(F)F)c4)c2C3=O)cc1OC`, 20.4 µM.
Regarding `CCc1cc(C(=O)OCC(=O)N2CCC(c3ccccc3)=N2)sc1C`, the EC50 is > 35 µM (inactive).
Regarding `CCOC(=O)C[C@H]1c2ccccc2S(=O)(=O)N1Cc1cccc(C(F)(F)F)c1`, the EC50 was > 35 µM (inactive).
Turning to `COc1cc(C(=O)NCc2cc(C)nc3ccccc23)cc(OC)c1OC`, the EC50 was > 35 µM (inactive).
For `CCOC(=O)c1sc(NC(=O)CSc2nc(C)cc(C)c2C#N)c(C#N)c1C` the value was > 35 µM (inactive); for `Cc1cc(C)n(S(=O)(=O)c2ccc(C)c(C)c2C)n1`, > 35 µM (inactive).
Consider `O=C(c1ccccc1)N1CCN(S(=O)(=O)c2ccccc2)CC1`, for which the EC50 was > 35 µM (inactive).
For `CCOC(=O)/C(=C\c1ccc(OC(F)F)cc1)C1=Nn2c(nnc2-c2ccc(Cl)cc2)SC1` the value was 6.18 µM.
For the compound `CCN(CC)CCSc1nnc2c3ccccc3n(Cc3ccccc3)c2n1`, the EC50 was > 35 µM (inactive).
Regarding `CCNC(=O)/C(C#N)=C/c1c(N2CCN(C)CC2)nc2c(C)cccn2c1=O`, the EC50 was > 35 µM (inactive).
The same measure for `CC(C(=O)N(C)c1ccccc1)N1CCN(C(=O)c2ccccc2)CC1` (stereo not given): > 35 µM (inactive).
For `CCS(=O)(=O)c1ncc(Cl)c(C(=O)Nc2ccc(C)cc2)n1` the value was > 35 µM (inactive); for `CCCCn1nc(C)c(C(=O)O)c1Cl`, > 35 µM (inactive).
The same measure for `O=C(COC(=O)Cc1ccccc1[N+](=O)[O-])NCc1ccc(Cl)cc1`: > 35 µM (inactive); for `COc1ccc2[nH]c(C(=O)Nc3ccc(F)cc3Br)cc2c1`: > 35 µM (inactive); for `COc1ccc(S(=O)(=O)Nc2c(C)n(C)n(-c3ccccc3)c2=O)cc1`: > 35 µM (inactive).
In the case of `COc1ccc2nc(SCC(=O)N3CCN(c4ccc(F)cc4)CC3)c(C#N)cc2c1`, the EC50 was > 35 µM (inactive).
With `COc1ccc(-c2csc(NC(=O)Cc3ccccc3F)n2)c(OC)c1`, the EC50 was > 35 µM (inactive).
`OC(Cn1cncn1)(Cn1cncn1)c1ccc(F)cc1F`: the EC50 was > 35 µM (inactive).
`Cc1ccc(NC(=O)c2ccc(Cl)c(N3C(=O)C=CC3=O)c2)cc1`: the EC50 was > 35 µM (inactive).
The same measure for `Oc1ccc(/C=N/N2CCN(C3c4ccccc4-c4ccccc43)CC2)cc1O`: > 35 µM (inactive).
The same measure for `O=C(COc1ccc(/C=N/NC(=O)c2cc3ccccc3o2)cc1Br)Nc1ccccc1`: 31.2 µM.
Regarding `Cc1ccccc1/C=C/C(=O)c1ccc([N+](=O)[O-])o1`, the EC50 is > 35 µM (inactive).
Consider `C[C@]12CC[C@H](O)C[C@H]1CC[C@@H]1[C@@H]2CC[C@]2(C)[C@@H](C3=CC(=O)OC3)CC[C@]12O`, for which the EC50 is > 35 µM (inactive).
For `COc1ccc(C(O)Cc2nccn2C)cc1` (stereo not given) the value was > 35 µM (inactive).
As for `COC(=O)CSc1nc(N)c2c3c(sc2n1)C(c1ccccc1)SC(c1ccccc1)C3` (stereo not given), the EC50 was > 35 µM (inactive).
For `Cc1nc(NC(=O)CN2CCN(c3cccc(Cl)c3)CC2)sc1C(=O)N(C)C`, the EC50 is > 35 µM (inactive).
For `Cc1cccc(/C=N/NC(=O)c2cc3c(s2)-c2ccccc2CC3)c1` the value was > 35 µM (inactive); for `O=C(Cc1ccc(-n2cccc2)cc1)NC1CCCCC1`, > 35 µM (inactive).
The same measure for `CC(C)OC(=O)CN1C(=O)S/C(=C/c2ccc(N3CCCCC3)o2)C1=O`: > 35 µM (inactive).
The same measure for `CC/C(=C1/C(=O)CC(C)(C)C(C(=O)OC)C1=O)N1CCCC1` (stereo not given): > 35 µM (inactive); for `COc1ccc(N2CCN(C3CCCN(Cc4cccc(C(C)=O)c4)C3)CC2)cc1` (stereo not given): > 35 µM (inactive); for `COc1ccc(OC)c(S(=O)(=O)NC(C)c2ccc(-n3ccnc3)cc2)c1` (stereo not given): > 35 µM (inactive).
As to `CNC(=O)Nc1ccc(Cn2cc(C(F)(F)F)ccc2=O)cc1`, the EC50 is > 35 µM (inactive).
With `NC(=NCCCCCCN=C(N)/N=C(\N)Nc1ccc(Cl)cc1)/N=C(\N)Nc1ccc(Cl)cc1`, the EC50 is > 35 µM (inactive).
In the case of `Cc1ccc(C)c(NC(=O)COC(=O)c2cc3ccccc3oc2=O)c1`, the EC50 was > 35 µM (inactive).
With `NCC1CCC(C(=O)Oc2ccc(CCC(=O)O)cc2)CC1` (stereo not given), the EC50 was > 35 µM (inactive).
With `O=C(CC1CC2CCC1C2)N1CCN(S(=O)(=O)c2ccccc2C(F)(F)F)CC1` (stereo not given), the EC50 is > 35 µM (inactive).
The same measure for `Cc1noc(C)c1CSCC(=O)N(C)CC(=O)Nc1ccc(Cl)c(Cl)c1`: > 35 µM (inactive).
The same measure for `COc1ccc(S(N)(=O)=O)cc1C(=O)OCCCOc1ccc(F)cc1`: > 35 µM (inactive).
Regarding `CC(C)CCNC(=O)c1cc(-c2ccncc2)nc2ccc(S(=O)(=O)N3CCOCC3)cc12`, the EC50 is > 35 µM (inactive).
Take `Nc1ccc(N2CCN(Cc3ccccc3Cl)CC2)c(Cl)c1`: the EC50 is > 35 µM (inactive).
For `Cc1noc(C)c1S(=O)(=O)N(C)C[C@H]1Oc2ccc(NC(=O)CCC(F)(F)F)cc2C(=O)N([C@H](C)CO)C[C@@H]1C` the value was > 35 µM (inactive); for `COc1ccccc1N1CCN(C(c2ccccc2)c2nnnn2CCc2ccccc2)CC1` (stereo not given), > 35 µM (inactive).
For `Cc1ccc(C#N)c(SCC(=O)Nc2nccs2)n1` the value was > 35 µM (inactive); for `CCCNC(=O)c1ccc2c(=O)c(O)c(-c3ccsc3)[nH]c2c1`, > 35 µM (inactive); for `CCOc1ccc(-n2c(SCC(=O)Nc3ccc(Br)cc3)nc3n[nH]c(C)c3c2=N)cc1`, 21.6 µM.
